According to ChEMBL document CHEMBL2074414, “Molecular and functional characterization of organic cation/carnitine transporter family in mice” (J Biol Chem, 2000):

Key:
[1] = biological target: T1, Solute carrier family 22 member 21 (Mus musculus) (UniProt Q9WTN6); assay: TP_TRANSPORTER: inhibition of carnitine uptake by Glycine betaine at 500uM in Octn3-HEK cells; assay type: functional, cell-based; set-up: scale not given: the % may be the effect or the level left; details: HEK293
T1 sequence (whole entry): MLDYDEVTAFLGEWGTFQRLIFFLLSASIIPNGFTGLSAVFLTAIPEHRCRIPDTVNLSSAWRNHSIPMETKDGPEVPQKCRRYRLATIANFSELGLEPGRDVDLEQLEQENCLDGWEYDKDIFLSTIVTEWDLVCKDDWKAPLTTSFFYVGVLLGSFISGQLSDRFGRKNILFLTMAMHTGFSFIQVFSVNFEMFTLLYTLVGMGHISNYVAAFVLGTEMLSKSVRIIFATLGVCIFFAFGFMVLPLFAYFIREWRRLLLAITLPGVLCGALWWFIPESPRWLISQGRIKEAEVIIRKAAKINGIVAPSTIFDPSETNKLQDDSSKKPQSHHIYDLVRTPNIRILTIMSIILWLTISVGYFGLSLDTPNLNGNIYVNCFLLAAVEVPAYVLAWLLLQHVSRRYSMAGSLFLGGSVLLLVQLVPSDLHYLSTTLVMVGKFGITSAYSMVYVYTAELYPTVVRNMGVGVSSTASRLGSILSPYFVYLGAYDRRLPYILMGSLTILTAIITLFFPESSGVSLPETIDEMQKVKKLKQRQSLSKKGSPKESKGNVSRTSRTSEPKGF

[2] = biological target: T2, Organic cation/carnitine transporter 2 (Mus musculus, UniProt Q9Z0E8); assay: TP_TRANSPORTER: inhibition of carnitine uptake by Glycine betaine at […] in Octn2-HEK cells; assay type: functional, cell-based; set-up: scale not given: the % may be the effect or the level left; details: human, hek293
T2 sequence (Q9Z0E8 whole entry): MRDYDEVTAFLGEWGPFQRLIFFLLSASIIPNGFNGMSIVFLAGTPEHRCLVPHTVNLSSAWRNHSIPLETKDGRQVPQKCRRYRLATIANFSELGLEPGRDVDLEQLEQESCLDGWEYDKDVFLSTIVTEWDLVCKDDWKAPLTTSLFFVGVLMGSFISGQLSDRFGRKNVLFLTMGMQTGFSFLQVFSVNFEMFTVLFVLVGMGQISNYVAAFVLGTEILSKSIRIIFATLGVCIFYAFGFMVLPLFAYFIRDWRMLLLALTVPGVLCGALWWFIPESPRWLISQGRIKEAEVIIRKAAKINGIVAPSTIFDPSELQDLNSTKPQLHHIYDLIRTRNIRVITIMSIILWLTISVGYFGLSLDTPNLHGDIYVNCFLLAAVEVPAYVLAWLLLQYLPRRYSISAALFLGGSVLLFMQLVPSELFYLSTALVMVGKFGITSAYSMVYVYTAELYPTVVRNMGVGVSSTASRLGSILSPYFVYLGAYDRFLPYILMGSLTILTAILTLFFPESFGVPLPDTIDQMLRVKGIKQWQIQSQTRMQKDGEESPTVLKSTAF

[3] = biological target: T3, Octn2 (Organic cation/carnitine transporter 2) (Mus musculus, UniProt Q9Z0E8); assay: TP_TRANSPORTER: inhibition of carnitine uptake by Octanoyl-carnitine at 5uM in Octn2-HEK cells; assay type: functional, cell-based, HEK293; set-up: scale not given: the % may be the effect or the level left; details: human, probe carnitine, read-out: Activity
T3 sequence (Q9Z0E8 whole entry): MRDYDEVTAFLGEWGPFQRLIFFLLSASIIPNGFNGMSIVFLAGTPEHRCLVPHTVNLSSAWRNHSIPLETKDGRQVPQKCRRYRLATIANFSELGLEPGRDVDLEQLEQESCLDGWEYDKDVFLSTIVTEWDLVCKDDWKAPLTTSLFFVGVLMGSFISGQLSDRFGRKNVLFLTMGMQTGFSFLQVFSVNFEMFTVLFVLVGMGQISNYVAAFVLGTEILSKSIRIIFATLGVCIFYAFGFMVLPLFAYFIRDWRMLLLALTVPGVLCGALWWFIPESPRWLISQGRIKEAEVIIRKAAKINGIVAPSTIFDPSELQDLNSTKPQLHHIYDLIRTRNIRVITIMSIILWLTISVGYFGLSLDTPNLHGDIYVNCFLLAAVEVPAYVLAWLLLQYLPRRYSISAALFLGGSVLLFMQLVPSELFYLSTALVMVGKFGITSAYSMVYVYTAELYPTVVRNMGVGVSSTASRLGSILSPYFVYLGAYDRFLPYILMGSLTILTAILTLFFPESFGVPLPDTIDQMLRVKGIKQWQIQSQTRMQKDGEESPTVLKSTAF

[4] = biological target: T1, Solute carrier family 22 member 21 (Mus musculus); assay: TP_TRANSPORTER: inhibition of carnitine uptake by Octanoyl-carnitine at 5uM in Octn3-HEK cells; assay type: functional, cell-based; set-up: scale not given: the % may be the effect or the level left; details: HEK293
[5] = biological target: T4, Solute carrier family 22 member 4 (Mus musculus, UniProt Q9Z306); assay: TP_TRANSPORTER: uptake in Octn1-HEK cells; assay type: functional, cell-based; details: human, hek293
T4 sequence (Q9Z306 whole entry): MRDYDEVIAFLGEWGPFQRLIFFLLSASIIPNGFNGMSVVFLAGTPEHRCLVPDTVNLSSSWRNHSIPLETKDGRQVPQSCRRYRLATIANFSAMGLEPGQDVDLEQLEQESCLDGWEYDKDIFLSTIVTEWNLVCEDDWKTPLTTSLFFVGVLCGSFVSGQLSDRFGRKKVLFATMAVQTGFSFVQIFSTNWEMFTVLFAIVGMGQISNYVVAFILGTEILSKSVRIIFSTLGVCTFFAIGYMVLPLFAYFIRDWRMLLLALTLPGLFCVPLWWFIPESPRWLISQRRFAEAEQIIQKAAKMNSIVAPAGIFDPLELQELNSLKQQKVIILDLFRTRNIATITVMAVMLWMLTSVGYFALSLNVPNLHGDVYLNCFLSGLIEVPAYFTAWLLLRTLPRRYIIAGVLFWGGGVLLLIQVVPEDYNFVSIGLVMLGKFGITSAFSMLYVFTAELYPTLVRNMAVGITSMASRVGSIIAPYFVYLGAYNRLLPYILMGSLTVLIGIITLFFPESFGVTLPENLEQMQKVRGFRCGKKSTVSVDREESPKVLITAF

[6] = biological target: T1, Solute carrier family 22 member 21 (Mus musculus); assay: TP_TRANSPORTER: inhibition of carnitine in Octn3-HEK cells; assay type: functional, cell-based; details: HEK293
[7] = biological target: T3, Octn2 (Organic cation/carnitine transporter 2); assay: TP_TRANSPORTER: inhibition of carnitine transport by Palmitoyl-carnitine at 5uM in Octn2-HEK cells; assay type: functional, cell-based, HEK293; set-up: scale not given: the % may be the effect or the level left; details: human, probe carnitine, read-out: Activity
[8] = biological target: T1, Solute carrier family 22 member 21 (Mus musculus); assay: TP_TRANSPORTER: inhibition of carnitine uptake by Acetyl-L-carnitine at 5uM in Octn3-HEK cells; assay type: functional, cell-based; set-up: scale not given: the % may be the effect or the level left; details: HEK293
[9] = biological target: T2, Organic cation/carnitine transporter 2; assay: TP_TRANSPORTER: inhibition of carnitine uptake by Acetyl-L-carnitine at 5uM in Octn2-HEK cells; assay type: functional, cell-based; set-up: scale not given: the % may be the effect or the level left; details: human, hek293, 5 µM
[10] = biological target: T1, Solute carrier family 22 member 21 (Mus musculus); assay: TP_TRANSPORTER: inhibition of carnitine transport by gamma-butyrobetaine at 5uM in Octn3-HEK cells; assay type: functional, cell-based; set-up: scale not given: the % may be the effect or the level left; details: HEK293
[11] = biological target: T3, Octn2 (Organic cation/carnitine transporter 2); assay: TP_TRANSPORTER: inhibition of carnitine uptake by gamma-butyrobetaine at 5uM in Octn2-HEK cells; assay type: functional, cell-based, HEK293; set-up: scale not given: the % may be the effect or the level left; details: human, probe carnitine, read-out: Activity
[12] = biological target: T1, Solute carrier family 22 member 21 (Mus musculus); assay: TP_TRANSPORTER: inhibition of carnitine transport by Butyryl-carnitine at 5uM in Octn3-HEK cells; assay type: functional, cell-based; set-up: scale not given: the % may be the effect or the level left; details: HEK293
[13] = biological target: T2, Organic cation/carnitine transporter 2; assay: TP_TRANSPORTER: inhibition of carnitine uptake by Butyryl-carnitine at 5uM in Octn2-HEK cells; assay type: functional, cell-based; set-up: scale not given: the % may be the effect or the level left; details: human, hek293, 5 µM
[14] = biological target: T3, Octn2 (Organic cation/carnitine transporter 2); assay: in vitro; details: human, Octn2-HEK cells, probe carnitine
[15] = substrate: CC[N+](CC)(CC)CC; assay: cells, lysate or membranes named
[16] = substrate: C[N+](C)(C)CC(O)CC(=O)[O-]; assay: TP_TRANSPORTER: uptake in Octn2-HEK cells; assay type: functional, cell-based, HEK293
[17] = substrate: C[N+](C)(C)CC(O)CC(=O)[O-]; assay: TP_TRANSPORTER: uptake in Octn3-HEK cells; assay type: functional, cell-based; details: HEK293

C[N+](C)(C)CC(=O)O [BETAINE]
Activity [1]: 84% | Activity [2]: 56%

CCCCCCCC(=O)OC(CC(=O)O)C[N+](C)(C)C (stereo not drawn) [Octanoyl-carnitine]
activity at 5 µM [3]: 38% | Activity [4]: 15%

C[N+](C)(C)CC(O)CC(=O)[O-] (stereo not drawn) [CARNITINE]
Activity [5]: substrate []

CCCCCCCCCCCCCCCC(=O)OC(CC(=O)[O-])C[N+](C)(C)C (stereo not drawn) [Palmitoyl-carnitine]
Activity [6]: 54 µM | activity at 5 µM [7]: 28%

CC(=O)O[C@H](CC(=O)[O-])C[N+](C)(C)C [ACETYLCARNITINE]
Activity [8]: 21% | Activity [9]: 67%

C[N+](C)(C)CCCC(=O)[O-]
Activity [10]: 11% | activity at 5 µM [11]: 77%

CCCC(=O)OC(CC(=O)[O-])C[N+](C)(C)C (stereo not drawn) [Butyryl-carnitine]
Activity [12]: 13% | Activity [13]: 66%

C[N+](C)(C)CCO [CHOLINE]
activity at 500 µM [14]: 75%

B1: Solute carrier family 22 member 4 (Mus musculus) (protein)
chain: MRDYDEVIAFLGEWGPFQRLIFFLLSASIIPNGFNGMSVVFLAGTPEHRCLVPDTVNLSSSWRNHSIPLETKDGRQVPQSCRRYRLATIANFSAMGLEPGQDVDLEQLEQESCLDGWEYDKDIFLSTIVTEWNLVCEDDWKTPLTTSLFFVGVLCGSFVSGQLSDRFGRKKVLFATMAVQTGFSFVQIFSTNWEMFTVLFAIVGMGQISNYVVAFILGTEILSKSVRIIFSTLGVCTFFAIGYMVLPLFAYFIRDWRMLLLALTLPGLFCVPLWWFIPESPRWLISQRRFAEAEQIIQKAAKMNSIVAPAGIFDPLELQELNSLKQQKVIILDLFRTRNIATITVMAVMLWMLTSVGYFALSLNVPNLHGDVYLNCFLSGLIEVPAYFTAWLLLRTLPRRYIIAGVLFWGGGVLLLIQVVPEDYNFVSIGLVMLGKFGITSAFSMLYVFTAELYPTLVRNMAVGITSMASRVGSIIAPYFVYLGAYNRLLPYILMGSLTVLIGIITLFFPESFGVTLPENLEQMQKVRGFRCGKKSTVSVDREESPKVLITAF
Km [15]: 452 µM

B2: Organic cation/carnitine transporter 2 (Mus musculus) (protein)
chain: MRDYDEVTAFLGEWGPFQRLIFFLLSASIIPNGFNGMSIVFLAGTPEHRCLVPHTVNLSSAWRNHSIPLETKDGRQVPQKCRRYRLATIANFSELGLEPGRDVDLEQLEQESCLDGWEYDKDVFLSTIVTEWDLVCKDDWKAPLTTSLFFVGVLMGSFISGQLSDRFGRKNVLFLTMGMQTGFSFLQVFSVNFEMFTVLFVLVGMGQISNYVAAFVLGTEILSKSIRIIFATLGVCIFYAFGFMVLPLFAYFIRDWRMLLLALTVPGVLCGALWWFIPESPRWLISQGRIKEAEVIIRKAAKINGIVAPSTIFDPSELQDLNSTKPQLHHIYDLIRTRNIRVITIMSIILWLTISVGYFGLSLDTPNLHGDIYVNCFLLAAVEVPAYVLAWLLLQYLPRRYSISAALFLGGSVLLFMQLVPSELFYLSTALVMVGKFGITSAYSMVYVYTAELYPTVVRNMGVGVSSTASRLGSILSPYFVYLGAYDRFLPYILMGSLTILTAILTLFFPESFGVPLPDTIDQMLRVKGIKQWQIQSQTRMQKDGEESPTVLKSTAF
Km [16]: 22 µM | Km [15]: 216 µM

B3: Solute carrier family 22 member 21 (Mus musculus), Q9WTN6 (protein)
chain: MLDYDEVTAFLGEWGTFQRLIFFLLSASIIPNGFTGLSAVFLTAIPEHRCRIPDTVNLSSAWRNHSIPMETKDGPEVPQKCRRYRLATIANFSELGLEPGRDVDLEQLEQENCLDGWEYDKDIFLSTIVTEWDLVCKDDWKAPLTTSFFYVGVLLGSFISGQLSDRFGRKNILFLTMAMHTGFSFIQVFSVNFEMFTLLYTLVGMGHISNYVAAFVLGTEMLSKSVRIIFATLGVCIFFAFGFMVLPLFAYFIREWRRLLLAITLPGVLCGALWWFIPESPRWLISQGRIKEAEVIIRKAAKINGIVAPSTIFDPSETNKLQDDSSKKPQSHHIYDLVRTPNIRILTIMSIILWLTISVGYFGLSLDTPNLNGNIYVNCFLLAAVEVPAYVLAWLLLQHVSRRYSMAGSLFLGGSVLLLVQLVPSDLHYLSTTLVMVGKFGITSAYSMVYVYTAELYPTVVRNMGVGVSSTASRLGSILSPYFVYLGAYDRRLPYILMGSLTILTAIITLFFPESSGVSLPETIDEMQKVKKLKQRQSLSKKGSPKESKGNVSRTSRTSEPKGF
Km [17]: 3 µM
